From patent US10450549B2, “Aryloxyphenoxypropionate tolerance in turfrgass species and use of AAD1 as a selectable marker” (Dow AgroSciences, LLC, priority 2004, dated 2019)

Assays:
Non-transformed hybrids = assay: Field tolerance to quizalofop and 2,4-D: non-transformed hybrids; assay type: in vivo, corn; conditions: for % Injury 3 WAA (0-100 scale): 140 g ae/ha
Text: Two field trials were established at field stations in Hawaii and Indiana. […] The hybrid Hi-II×5XH571 is of the same parentage as the AAD1 (v3) event lines. The hybrid Croplan 585SR is a sethoxydim resistant line.
The experimental design was a split-plot with four replications. The main plot was herbicide treatment and the sub-plot was AAD1 (v3) event or comparison hybrid. Plots were one row by 3.7 meters with approximately twenty-five seeds planted in each row. For AAD1 events, seeds from a different lineage within the event were planted in each replicate.
Glufosinate at 560 g ai/ha was applied to AAD1 (v3) plots at the V2 stage to eliminate non-transformed plants. […] Treatments were applied using backpack broadcast boom equipment delivering 187 L/ha carrier volume at 130-200 kpa pressure.
Quizalofop treated plots were visually assessed for crop injury at one and three weeks after application (WAA) using a 0-100% scale, where 0 equals no injury and 100 equals complete death.

[1] = tested on: AAD1 (v3)-transformed T0 corn events; assay: Tolerance of T0 AAD1 (v3) corn plants (pDAB3404) to postemergence AOPP herbicides; assay type: in vivo
[2] = tested on: AAD1-transformed T0 ‘Crenshaw’ creeping bentgrass events (pDAB3878, pDAB5042); assay: Quizalofop-p-ethyl postemergence on AAD1-transformed T0 Crenshaw creeping bentgrass, visual % injury; assay type: in vivo, Agrostis stolonifera L. var. palustris
Procedure: After molecular confirmation was utilized to identify transgenic events, a number of transgenic events were tested for herbicide tolerance. Specific isolated transgenic events were selected and maintained vegetatively through division of the crowns and replanting the clonal pieces into fresh growth medium. Clonally propagated plants were maintained by periodic “mowing” of vegetative tissues.
Growth medium was prepared by mixing Promix® and sand in a 2 to 1 ratio. The medium was contained in plastic pots with a surface area of 84.6 square centimeters (cm^2). When required to maintain plant health, a fungicide, insecticide, and/or other chemical or physical treatment was applied to stock plants. The plants were maintained in a greenhouse with an approximate 14 hour photoperiod which was maintained at 24-27° C. during the day and 22-25° C. during the night. Nutrients (Peters Excel® 15-5-15 5-Ca 2-Mg and iron chelate) were applied in the irrigation solution as needed, and water was added on a regular basis. Supplemental lighting was provided with overhead metal halide 1000-Watt lamps when photosynthetically active radiation (PAR) dropped below 500.
Selected T0 plants were sprayed with quizalofop-p-ethyl (Assure II®, DUPONT, Wilmington, Del.) at rates ranging from 60 to 2,240 g ae/ha. […] This rate also controls susceptible monocot weed species. Measured amounts were placed individually in 25 mL glass vials and dissolved in a 4 mL volume of 1.0% (v/v) Agri-Dex® Crop Oil Concentrate (COC) from HELENA CHEMICAL (Collierville, Tenn.). Application solutions were prepared by serial dilution of the highest rate applied. One-half the volume of the highest rate stock solution (2 mL) was transferred to a clean 25 mL vial containing an equal volume of 1% COC and the diluted solution was mixed. Additional dilutions were prepared similarly by removing one-half the volume of the previous concentration (2 mL), and adding to an equal volume of 1% COC and mixing. When preparing the lowest concentration, the remaining one-half volume was discarded. All 2 mL stock solutions were further diluted by adding 10 mL aqueous mixture of 1.0% (v/v) COC, so that the final spray solutions were 12 mL in volume and contained 1.0% (v/v) COC.
Spray solutions were applied to the plant material with an overhead Mandel™ track sprayer equipped with a 8002E nozzles calibrated to deliver 187 L/ha over an application area of 0.503 square meters (m^2) at a spray height of 18 inches (46 cm) above average plant canopy height. Control plants were sprayed in the same manner with the COC blank.
The treated plants and control plants were placed in a greenhouse, and watered by sub-irrigation to prevent wash-off of the test compounds. At various times after application, the condition of the test plants as compared with that of the untreated plants was determined visually and scored on a scale of 0 to 100 percent (where 0 corresponds to no injury or growth inhibition and 100 corresponds to complete kill). Regenerated, non-transformed (NT) ‘Crenshaw’ or elite line 2905-2 creeping bentgrass plants and/or seed-derived clonally propagated plants served as quizalofop sensitive controls.

[3] = tested on: Hi-II corn grown from seed; assay: Lethal dose of AOPP herbicides on non-transformed Hi-II corn

Structure (SMILES): C[C@@H](Oc1ccc(Oc2cnc3cc(Cl)ccc3n2)cc1)C(=O)O [quizalofop]
- injury of non-transformed hybrids (Non-transformed hybrids; 70 g ae/ha, field): 80-100%
- % Injury 3 WAA (0-100 scale) (Non-transformed hybrids; HI, CROPLAN 585SR): 96%
- % Injury 3 WAA (0-100 scale) (Non-transformed hybrids; HI, DK493): 100%
- % Injury 3 WAA (0-100 scale) (Non-transformed hybrids; HI, HI-II X 5XH571): 100%
- % Injury 3 WAA (0-100 scale) (Non-transformed hybrids; IN, CROPLAN 585SR): 80%
- % Injury 3 WAA (0-100 scale) (Non-transformed hybrids; IN, DK493): 100%
- % Injury 3 WAA (0-100 scale) (Non-transformed hybrids; IN, HI-II X 5XH571): 100%
- injury of most AAD1 (v3) T0 lines ([1]; 8× field dose (64× lethal dose), 14 DAT): no visible injury
- % Injury 14 DAT ([1]; 8.8 g ae/ha, construct 3404 event 001 clone 017): 0%
- % Injury 14 DAT ([1]; 8.8 g ae/ha, construct 3404 event 001 clone 019): 30%
- % Injury 14 DAT ([1]; 8.8 g ae/ha, construct 3404 event 022 clone 021): 0%
- % Injury 14 DAT ([1]; 8.8 g ae/ha, construct 3404 event 038 clone 017): 0%
- % Injury 14 DAT ([1]; 17.5 g ae/ha, construct 3404 event 022 clone 017): 0%
- % Injury 14 DAT ([1]; 35 g ae/ha, construct 3404 event 001 clone 020): 0%
- % Injury 14 DAT ([1]; 35 g ae/ha, construct 3404 event 017 clone 018): 0%
- % Injury 14 DAT ([1]; 35 g ae/ha, construct 3404 event 017 clone 019): 0%
- % Injury 14 DAT ([1]; 35 g ae/ha, construct 3404 event 022 clone 022): 0%
- % Injury 14 DAT ([1]; 35 g ae/ha, construct 3404 event 033 clone 012): 0%
- % Injury 14 DAT ([1]; 35 g ae/ha, construct 3404 event 038 clone 019): 70%
- % Injury 14 DAT ([1]; 35 g ae/ha, construct 3404 event 038 clone 020): 80%
- % Injury 14 DAT ([1]; 70 g ae/ha, construct 3404 event 017 clone 020): 0%
- % Injury 14 DAT ([1]; 70 g ae/ha, construct 3404 event 017 clone 021): 0%
- % Injury 14 DAT ([1]; 70 g ae/ha, construct 3404 event 022 clone 023): 0%
- % Injury 14 DAT ([1]; 70 g ae/ha, construct 3404 event 033 clone 013): 0%
- % Injury 14 DAT ([1]; 70 g ae/ha, construct 3404 event 033 clone 014): 0%
- % Injury 14 DAT ([1]; 70 g ae/ha, construct 3404 event 038 clone 021): 80%
- % Injury 14 DAT ([1]; 70 g ae/ha, construct 3404 event 038 clone 022): 80%
- % Injury 14 DAT ([1]; 140 g ae/ha, construct 3404 event 017 clone 022): 0%
- % Injury 14 DAT ([1]; 140 g ae/ha, construct 3404 event 017 clone 023): 30%
- % Injury 14 DAT ([1]; 140 g ae/ha, construct 3404 event 033 clone 015): 0%
- % Injury 14 DAT ([1]; 280 g ae/ha, construct 3404 event 017 clone 024): 30%
- % Injury 14 DAT ([1]; 280 g ae/ha, construct 3404 event 017 clone 025): 20%
- % Injury 14 DAT ([1]; 280 g ae/ha, construct 3404 event 033 clone 016): 0%
- mean injury, pDAB5042 Crenshaw events ([2]; 60, 120, 240 and 480 g ae/ha, 21 to 24 DAA): less than 10%
- mean injury, pDAB3878 Crenshaw events ([2]; 120 g ae/ha, 11 DAA): about 20%
- mean injury, pDAB3878 Crenshaw events ([2]; 120 g ae/ha, 14 DAA): about 25%
- mean injury, pDAB3878 Crenshaw events ([2]; 120 g ae/ha, 20 DAA): about 20%
- mean injury, pDAB3878 Crenshaw events ([2]; 480 g ae/ha, 11 DAA): ~30%
- mean injury, pDAB3878 Crenshaw events ([2]; 480 g ae/ha, 14 DAA): ~30%
- mean injury, pDAB3878 Crenshaw events ([2]; 480 g ae/ha, 20 DAA): about 20%
- injury of individual pDAB5042 Crenshaw events ([2]; 480 g ae/ha, 21-24 DAA, all events except 204 and 227): ≤ 20%
- lethal dose ([3]; Assure II + 1% COC (v/v)): 4.4 g ae/ha)
- rate that effectively kills (>95% injury) three to four leaf Hi-II corn ([3]; postemergence, commercial formulations): 4.4 g ae/ha
